Article PMC6017645, “Substrate Binding Switches the Conformation at the Lynchpin Site in the Substrate-Binding Domain of Human Hsp70 to Enable Allosteric Interdomain Communication” (Molecules : A Journal of Synthetic Chemistry and Natural …, 2018)
Blank lines part the entries; values can stand above or below the molecule they belong to.

Columns and labels:
[1] = target: T1, SBD(∆CDE)-y of human Hsp70 (Homo sapiens, UniProt P0DMV8, L542Y); experiment: Binding kinetics estimated from simulation of NMR exchange
T1 construct: We solved the solution structure of SBD(∆CDE) comprising residues 382–564; His6 (N, cleaved yes); made in house; host or cells: E. coli BL21(DE3)
T1 sequence (P0DMV8 382-564 L542Y): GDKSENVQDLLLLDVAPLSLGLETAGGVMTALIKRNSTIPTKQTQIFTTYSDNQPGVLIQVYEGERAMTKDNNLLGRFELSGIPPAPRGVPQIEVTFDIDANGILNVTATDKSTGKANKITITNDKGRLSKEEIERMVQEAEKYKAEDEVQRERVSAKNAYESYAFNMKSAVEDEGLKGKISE
Experimental: This gives a kon = 2.3 × 10^4 M^−1 s^−1, which is consistent with the kinetics for the lidless SBD of DnaK in binding to its target peptide (kon = 2 × 10^4 M^−1 s^−1 and koff = 12.5 s^−1).
The NMR titration experiments were performed by acquiring a series of 2D ^1H-^15N HSQC spectra of the protein in 50 mM potassium phosphate (pH 7.0), 50 mM KCl and 10 mM DTT at 310 K (37 °C). The NR-peptide (0.075 mM, 0.15 mM, 0.30 mM, 0.60 mM, 1.2 mM, 3.0 mM and 6.0 mM) was titrated into a sample containing 0.3 mM ^15N labeled SBD(∆CDE)-y. Data processing and analysis were performed with NMRPipe and KUJIRA [41], respectively. The dissociation constant, KD, was estimated by fitting Equation (1) to the bound fraction of SBD(∆CDE)-y, fbound: (1) fbound([L]total)=1−I([L]total)/I0=([P]total+[L]total+KD)−([P]total+[L]total+KD)^2−4[P]total[L]total/2[P]total where [L]total and [P]total are the total concentrations of NR-peptide and SBD(∆CDE)-y, respectively, and I and I0 are the signal intensities with and without NR-peptide. Each signal intensity was measured by a similar procedure described in Section 4.3. […] Uncertainties in the dissociation constant was estimated by Monte Carlo simulations on the basis of the uncertainty for each signal intensity evaluated using the root-mean-square deviation value on a spectral region with no signals, which was obtained by the NMRPipe built-in module.

[2] = tested on: SBD in Hsp70 with covalently modified E444; settings: PDB ID: 4WV7; ref [29]; cited from earlier work
Description: E444 in Hsp70 is accessible by NBD in the apo-form SBD(∆CDE)-y, whereas it is covered by the Lα,β loop and therefore this interaction is hindered in the substrate-bound form (Figure 7a,b). This is consistent with the observation for Q442 in DnaK, as described above.

[3] = target: T2, SBD(∆CDE) (S537C/L542Y) mutant, labelled at residue 537 with MTSL or its diamagnetic analog (human, UniProt P0DMV8 382-564, S537C | L542Y, MTSL nitroxide radical, or the diamagnetic MTSL analog, on C537); experiment: NMR paramagnetic relaxation enhancement; 2D 1H-15N HSQC of 0.5 mM spin-labelled SBD(∆CDE) (S537C/L542Y) with/without 5.0 mM NR-peptide; 50 mM potassium phosphate pH 7.0, 50 mM KCl, 37 °C; settings: both partners purified
T2 construct: 15N-labelled for NMR; PDB 5XIR is the parent SBD(∆CDE)-y without S537C; also called SBD(∆CDE)-y harboring a S537C mutation; SBD(∆CDE)-y with spin labeling at residue 537; source: E. coli BL21(DE3), purified (as in Section 4.1), then labelled with MTSL; not shown: His6, N-terminal, cleaved
T2 sequence (P0DMV8 382-564 S537C/L542Y): as the sequence (P0DMV8 382-564 L542Y) above, with S156C counted along it

[4] = target: T3, SBD(∆CDE)-y, substrate-binding domain of human Hsp70 (HSPA1A) lacking αC, αD and αE, with the L542Y mutation (human, UniProt P0DMV8 382-564, L542Y); experiment: NMR titration; 2D 1H-15N HSQC; NR-peptide (0.075-6.0 mM) titrated into 0.3 mM 15N-labelled SBD(∆CDE)-y; 50 mM potassium phosphate pH 7.0, 50 mM KCl, 10 mM DTT, 37 °C; slow exchange; global fit of signal intensities of 28 residues; settings: both partners purified
T3 construct: Cloned in pET16b (NdeI/XhoI); 15N- or 13C/15N-labelled for NMR, unlabelled (LB medium) for ITC; also called mutant SBD; apo-form SBD; source: E. coli BL21(DE3), purified (HisTrap FF, Factor Xa cleavage, HiTrap Q FF); not shown: His6, N-terminal, cleaved
T3 sequence (P0DMV8 382-564 L542Y): as the sequence (P0DMV8 382-564 L542Y) above

[5] = target: T3, SBD(∆CDE)-y, substrate-binding domain …; experiment: ITC; 1.5 μL injections of 5 mM NR-peptide into 200 μL of 0.1 mM SBD(∆CDE)-y; single-site fit with the stoichiometry fixed as n = 1; triplicate; settings: both partners purified

kon ([1]; from koff 30 s^−1 and KD = 1.3 mM): 23000 M⁻¹ s⁻¹
koff ([1]; simulation using average R2 rate 21 s^−1 and KD = 1.3 mM, SBD(∆CDE)-y 0.3 mM, peptide 3.0 mM, read-out: maximum koff): ≤ 30 s⁻¹
Molecule: CC(C)C[C@H](NC(=O)[C@H](CC(C)C)NC(=O)[C@H](CCCNC(=N)N)NC(=O)[C@@H](N)CC(N)=O)C(=O)N[C@@H](CC(C)C)C(=O)N[C@H](C(=O)NCC(=O)O)[C@@H](C)O [NR-peptide]

Molecule: C=CC1=CC[C@H]2[C@@H](C[C@@H](O)[C@@]3(O)[C@@]4(C)C(=O)O[C@H]4CC[C@]23C)[C@H]1C [novolactone]
effect of covalent E444 modification on interdomain interactions [2]: sterically blocks the interdomain interactions

binding result [3]: binds
Kd [4]: 1300 µM
Kd [5]: 1500 µM
B1: NR-peptide (peptide)
peptide: NRLLLTG
notes: Model client peptide of Hsp70; also called NRLLLTG; client-peptide
